Experimental data from US5506115A, “Reagent and method for determining activity of herpes protease” (G. D. Searle & Co., priority 1994, dated 1996).
Where a SMILES comes first, the peptide text is derived from it. The star is where a group is joined. Dabcyl = CN(C)c1ccc(N=Nc2ccc(C(=O)*)cc2)cc1; EDANS = O=S(=O)(O)c1cccc2c(NCCN*)cccc12; GABA = NCCCC(=O)O

Biological target: T1, CMV assemblin (Human cytomegalovirus, UniProt P16753)
T1 construct: a DNA construction encoding the protease domain of the UL 80 open reading frame; His6 (N); made in house; host or cells: E. coli
Assay: Hydrolysis of fluorogenic substrate by CMV assemblin (fluorescence time course, FIG. 2)
Type: biochemical
Conditions: 10 μM DE1, protease added; 340 nm excitation, 480 nm emission; within 30 minutes
Method: The fluorometric assay developed to incorporate the substrate compounds of the invention is a method for the determination of a herpesvirus protease and inhibitors of a herpesvirus protease, e.g. a CMV protease (also known as assemblin) encoded by UL 80, which comprises placing a known amount of the herpesvirus protease in the wells of a "Microlite 1"96 well plate (Dynatek Laboratories, Inc.), adding a known amount of the substrate at 22° C., measuring the change in fluorescence with time and determining the molar velocity of the herpesvirus protease by comparing against a standard curve which relates changes in fluorescent intensity to changes in concentration of product. Potential inhibitors of the protease action can be added to the well to observe their effect on the protease cleavage activity.
The arrow indicates the addition of protease to 10 μM DE1 [SEQ ID NO:34]. […] Fluorescence magnitude is plotted versus time.
An assay was developed for screening potential herpesvirus protease inhibitors utilizing the substrates of the invention. Recombinant HCMV protease was purified from E. coli expressing a DNA construction encoding the protease domain of the UL 80 open reading frame of human cytomegalovirus strain AD169. The construction also encoded six additional histidine residues at the amino terminus of the protease. […]

T1 sequence (P16753 1-256): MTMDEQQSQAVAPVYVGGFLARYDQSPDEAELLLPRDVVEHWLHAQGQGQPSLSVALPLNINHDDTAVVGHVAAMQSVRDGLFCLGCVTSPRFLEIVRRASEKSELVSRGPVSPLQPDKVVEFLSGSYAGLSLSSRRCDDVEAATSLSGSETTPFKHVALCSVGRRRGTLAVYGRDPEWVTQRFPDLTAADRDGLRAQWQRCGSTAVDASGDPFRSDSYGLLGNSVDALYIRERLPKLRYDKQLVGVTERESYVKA

With `CC(C)C[C@H](NC(=O)[C@H](CCCNC(=N)N)NC(=O)[C@H](C)NC(=O)[C@H](CO)NC(=O)[C@H](C)NC(=O)[C@H](CC(N)=O)NC(=O)[C@@H](NC(=O)[C@@H](NC(=O)CCCNC(=O)c1ccc(N=Nc2ccc(N(C)C)cc2)cc1)C(C)C)C(C)C)C(=O)NCCNc1cccc2c(S(=O)(=O)O)cccc12` [DE1, DABCYL-γ-Abu-Val-Val-Asn-Ala-Ser-Ala-Arg-Leu-EDANS] ({Dabcyl-GABA}-VVNASARL-{EDANS}) the “increase in fluorescence emission on cleavage of the substrate” value was 10 fold.
